Laboratory results from patent US8329755B2, “Methods for treating retroviral infections” (Roche Palo Alto LLC, priority 2004, dated 2012).

| Structure (SMILES) | melting point [°C] |
| --- | --- |
| N#Cc1cc(Oc2c(F)c(CC(=O)Nc3ccc(S(N)(=O)=O)cc3)cc(Br)c2Br)cc(C(F)F)c1 [Compound I-114, 2-[4,5-Dibromo-3-(3-cyano-5-difluoromethyl-phenoxy)-2-fluoro-phenyl]-N-(4-sulfamoyl-phenyl)-acetamide] | 144 to 147 |
| Cc1cc(C#N)cc(C)c1Oc1cc(CC(=O)Nc2ccc(S(N)(=O)=O)cc2)ccc1Cl [Compound I-55, 2-[4-Chloro-3-(4-cyano-2,6-dimethyl-phenoxy)-phenyl]-N-(4-sulfamoyl-phenyl)-acetamide] | 227.3 to 231.4 |
| CCC(=O)N(C)S(=O)(=O)c1ccc(NC(=O)Cc2ccc(Cl)c(Oc3cc(Cl)cc(C#N)c3)c2F)c(Cl)c1 [Compound I-162, 2-[4-Chloro-3-(3-chloro-5-cyano-phenoxy)-2-fluoro-phenyl]-N-[2-chloro-4-(methyl-propionyl-sulfamoyl)-phenyl]-acetamide] | 198.2 to 200.6 |
| CCCC(=O)N(C)S(=O)(=O)c1ccc(NC(=O)Cc2ccc(Cl)c(Oc3cc(Cl)cc(C#N)c3)c2F)c(Cl)c1 [Compound I-139, N-[4-(Butyryl-methyl-sulfamoyl)-2-chloro-phenyl]-2-[4-chloro-3-(3-chloro-5-cyano-phenoxy)-2-fluoro-phenyl]-acetamide] | 186.9 to 187.6 |
| CCC(=O)NS(=O)(=O)c1ccc(NC(=O)Cc2ccc(Cl)c(Oc3cc(Cl)cc(C#N)c3)c2F)c(Cl)c1.[Na] | 155.4 to 157.5 |
| Cc1cc(S(N)(=O)=O)ccc1NC(=O)Cc1ccc(Cl)c(Oc2cc(C#N)cc(C(C)(F)F)c2)c1F [Compound I-96, 2-{4-Chloro-3-[3-cyano-5-(1,1-difluoro-ethyl)-phenoxy]-2-fluoro-phenyl}-N-(2-methyl-4-sulfamoyl-phenyl)-acetamide] | 198.5 to 201 |
| CC(C)c1ccc(CC(=O)Nc2ccccc2Cl)cc1Oc1cc(Cl)ccc1Br [Compound I-27, 2-[3-(2-Bromo-5-chloro-phenoxy)-4-isopropyl-phenyl]-N-(2-chloro-phenyl)-acetamide] | 142.9 to 143.6 |
| COc1ccc(CC(=O)Nc2ccccc2Cl)cc1Oc1cc(C#N)ccc1Cl [Compound I-62, 2-[3-(2-Chloro-5-cyano-phenoxy)-4-methoxy-phenyl]-N-(2-chloro-phenyl)-acetamide] | 194 to 197.8 |
| Cc1ccc(CC(=O)Nc2ccc(CC(=O)O)cc2Cl)cc1Oc1cc(Cl)cc(C#N)c1 [Compound I-236, (3-Chloro-4-{2-[3-(3-chloro-5-cyano-phenoxy)-4-methyl-phenyl]-acetylamino}-phenyl)-acetic acid] | 159.6 to 160 |
| Cc1ccc(C#N)cc1C(=O)c1cc(CC(=O)Nc2ccc(S(N)(=O)=O)cc2)ccc1C [Compound I-266, 2-[3-(5-Cyano-2-methyl-benzoyl)-4-methyl-phenyl]-N-(4-sulfamoyl-phenyl)-acetamide] | 229.6 to 231.1 |
| Cc1cc(S(N)(=O)=O)ccc1NC(=O)Cc1ccc(Cl)c(Oc2cc(C#N)cc(C#CCO)c2)c1F [Compound I-186, 2-{4-Chloro-3-[3-cyano-5-(3-hydroxy-prop-1-ynyl)-phenoxy]-2-fluoro-phenyl}-N-(2-methyl-4-sulfamoyl-phenyl)-acetamide] | 170.1 to 173.2 |
| Cc1cc(CC(=O)Nc2ccccc2Cl)cc(C(=O)c2ccc(Cl)cc2)c1 [Compound I-258, 2-[3-(4-Chloro-benzoyl)-5-methyl-phenyl]-N-(2-chloro-phenyl)-acetamide] | 134.7 to 135.5 |
| CC(=O)Nc1cc(C)c(NC(=O)Cc2ccc(C)c(Oc3cc(Cl)cc(C#N)c3)c2)cn1 [Compound I-228, N-(6-Acetylamino-4-methyl-pyridin-3-yl)-2-[3-(3-chloro-5-cyano-phenoxy)-4-methyl-phenyl]-acetamide] | 222.5 to 224 |
| Cc1cc(CC(=O)Nc2ccc(S(N)(=O)=O)cc2)cc(C(=O)c2ccccc2Cl)c1 [Compound I-263, 2-[3-(2-Chloro-benzoyl)-5-methyl-phenyl]-N-(4-sulfamoyl-phenyl)-acetamide] | 165 to 167 |
| CCC(=O)N(C)S(=O)(=O)c1ccc(NC(=O)Cc2ccc(Cl)c(Oc3cc(Cl)cc(C#N)c3)c2F)c(C)c1 [Compound I-99, 2-[4-Chloro-3-(3-chloro-5-cyano-phenoxy)-2-fluoro-phenyl]-N-[2-methyl-4-(methyl-propionyl-sulfamoyl)-phenyl]-acetamide] | 212 to 216.9 |
| Cc1cc(S(N)(=O)=O)ccc1NC(=O)Cc1cc(Oc2cccc(C#N)c2)c2occc2c1 [Compound I-145, 2-[7-(3-Cyano-phenoxy)-benzofuran-5-yl]-N-(2-methyl-4-sulfamoyl-phenyl)-acetamide] | 218.9 to 220 |
| Cl.N#Cc1cc(Cl)cc(Oc2c(Cl)ccc(CC(=O)Nc3ccc(S(=O)(=O)NC(=O)CCN)cc3Cl)c2F)c1 | 199.3 to 199.6 |
| Cc1cc(CC(=O)Nc2ccccc2Cl)cc(C(=O)c2cc(Cl)cc(Cl)c2)c1 [Compound I-231, N-(2-Chloro-phenyl)-2-[3-(3,5-dichloro-benzoyl)-5-methyl-phenyl]-acetamide] | 142 to 146.2 |
| Cc1ccc(CC(=O)Nc2ccccc2Cl)cc1Oc1cc(C#N)cc(C#N)c1 [Compound I-34, N-(2-Chloro-phenyl)-2-[3-(3,5-dicyano-phenoxy)-4-methyl-phenyl]-acetamide] | 175.1 to 177.5 |

Continued, values first:

| melting point [°C] | Structure (SMILES) |
| --- | --- |
| 142.1 to 142.8 | CCc1ccc(CC(=O)Nc2ccccc2Cl)cc1Oc1cc(C#N)cc(F)c1Cl [Compound I-59, 2-[3-(2-Chloro-5-cyano-3-fluoro-phenoxy)-4-ethyl-phenyl]-N-(2-chloro-phenyl)-acetamide] |
| 246 to 250.6 | Cc1cc(S(N)(=O)=O)ccc1NC(=O)Cc1ccc(Cl)c(Oc2cc(Br)cc(C#N)c2)c1F [Compound I-185, 2-[3-(3-Bromo-5-cyano-phenoxy)-4-chloro-2-fluoro-phenyl]-N-(2-methyl-4-sulfamoyl-phenyl)-acetamide] |
| 198.1 to 202.6 | CCc1ccc(CC(=O)Nc2ccc(S(N)(=O)=O)cc2)cc1Oc1cc(Cl)ccc1C#N [Compound I-17, 2-[3-(5-Chloro-2-cyano-phenoxy)-4-ethyl-phenyl]-N-(4-sulfamoyl-phenyl)-acetamide] |
| 169.9 to 171.1 | COc1cc(CC(=O)Nc2ccc(S(N)(=O)=O)cc2C)cc(Oc2cc(Cl)cc(C#N)c2)c1 [Compound I-133, 2-[3-(3-Chloro-5-cyano-phenoxy)-5-methoxy-phenyl]-N-(2-methyl-4-sulfamoyl-phenyl)-acetamide] |
| 200.5 to 203.5 | Cc1cc(S(N)(=O)=O)ccc1NC(=O)Cc1ccc(C)c(Oc2cc(Cl)ccc2Br)c1 [Compound I-31, 2-[3-(2-Bromo-5-chloro-phenoxy)-4-methyl-phenyl]-N-(2-methyl-4-sulfamoyl-phenyl)-acetamide] |
| 210.3 to 211.6 | Cc1cc(CC(=O)Nc2ccc(S(N)(=O)=O)cc2C)cc(C(=O)c2cccc(Cl)c2)c1 [Compound I-260, 2-[3-(3-Chloro-benzoyl)-5-methyl-phenyl]-N-(2-methyl-4-sulfamoyl-phenyl)-acetamide] |
| 213.2 to 219.6 | CCc1ccc(CC(=O)Nc2ccc(S(N)(=O)=O)cc2C)cc1Oc1cc(Cl)cc(Br)c1Cl [Compound I-36, 2-[3-(3-Bromo-2,5-dichloro-phenoxy)-4-ethyl-phenyl]-N-(2-methyl-4-sulfamoyl-phenyl)-acetamide] |
| 207 to 209.9 | CCc1ccc(CC(=O)Nc2ccc(S(N)(=O)=O)cc2C)cc1Oc1cc(Br)cc(F)c1Cl [Compound I-40, 2-[3-(5-Bromo-2-chloro-3-fluoro-phenoxy)-4-ethyl-phenyl]-N-(2-methyl-4-sulfamoyl-phenyl)-acetamide] |
| 165 to 166.6 | N#Cc1cc(Cl)cc(Oc2c(Br)ccc(CC(=O)Nc3ccc(S(N)(=O)=O)cc3Cl)c2F)c1 [Compound I-109, 2-[4-Bromo-3-(3-chloro-5-cyano-phenoxy)-2-fluoro-phenyl]-N-(2-chloro-4-sulfamoyl-phenyl)-acetamide] |
| 189.1 to 189.4 | CCc1ccc(CC(=O)Nc2ccc(S(N)(=O)=O)cc2C)cc1Oc1cc(Cl)cc(C#N)c1 [Compound I-46, 2-[3-(3-Chloro-5-cyano-phenoxy)-4-ethyl-phenyl]-N-(2-methyl-4-sulfamoyl-phenyl)-acetamide] |
| 78.9 to 79.5 | Cc1cc(S(=O)(=O)CCCO)ccc1NC(=O)Cc1ccc(C)c(Oc2cc(Cl)cc(C#N)c2)c1 [Compound I-157, 2-[3-(3-Chloro-5-cyano-phenoxy)-4-methyl-phenyl]-N-[4-(3-hydroxy-propane-1-sulfonyl)-2-methyl-phenyl]-acetamide] |
| 204 to 207 | CCc1cc(CC(=O)Nc2ccc(S(N)(=O)=O)cc2Cl)cc(Oc2cc(C#N)ccc2Cl)c1 [Compound I-107, 2-[3-(2-Chloro-5-cyano-phenoxy)-5-ethyl-phenyl]-N-(2-chloro-4-sulfamoyl-phenyl)-acetamide] |
| 207.7 to 209.3 | Cc1cc(CC(=O)Nc2ccc(S(N)(=O)=O)cc2C)cc(C(=O)c2ccccc2Cl)c1 [Compound I-256, 2-[3-(2-Chloro-benzoyl)-5-methyl-phenyl]-N-(2-methyl-4-sulfamoyl-phenyl)-acetamide] |
| 194 to 194.9 | Cc1ccc(CC(=O)Nc2ccc(S(N)(=O)=O)cc2Cl)cc1Oc1cc(Cl)cc(C#N)c1 [Compound I-123, 2-[3-(3-Chloro-5-cyano-phenoxy)-4-methyl-phenyl]-N-(2-chloro-4-sulfamoyl-phenyl)-acetamide] |
| 190.1 to 192.2 | Cc1cc(OCCCS(N)(=O)=O)ccc1NC(=O)Cc1ccc(Cl)c(Oc2cc(Cl)ccc2Br)c1 [Compound I-3, 2-[3-(2-Bromo-5-chloro-phenoxy)-4-chloro-phenyl]-N-[2-methyl-4-(3-sulfamoyl-propoxy)-phenyl]-acetamide] |
| 228.9 to 230.6 | Cc1ccc(CC(=O)Nc2ccc(S(N)(=O)=O)cc2Cl)c(F)c1Oc1cc(Cl)cc(C#N)c1 [Compound I-83, 2-[3-(3-Chloro-5-cyano-phenoxy)-2-fluoro-4-methyl-phenyl]-N-(2-chloro-4-sulfamoyl-phenyl)-acetamide] |
